Laboratory results from patent US9492434B2, “Combination compositions and methods of treatment” (University of Florida Research Foundation, Inc., priority 2011, dated 2016).

Legend:
Format in all cases: cell-based, human
[1] = system: E-Cadherin-containing complexes; assay: GST pulldown (glutathione-agarose) of E-Cadherin complexes from 231/E-Cad-GST cells, immunoblot; settings: for stabilization of E-Cadherin/γ-Catenin complexes relative to vehicle: 10 nM Largazole, 1 μM SAHA, or 100 nM TSA (FIG. 6C)
Experimental: Cells were subjected to hypotonic lysis and membrane fractions were isolated by centrifugation for one hour at 100,000×g. The pellet was solubilized by sonication in buffer containing 2% Triton X100, 20 mM HEPES (pH 7.4), 1 mM EDTA, 1 mM EGTA, 0.1% β-mercaptoethanol, 5% glycerol, 10 nM microcystin, 200 μM Na3VO4, and 40 mM Na2H2P2O7. The membrane extract was centrifuged for one hour at 100,000×g, and the supernatant was used for E-Cadherin purifications. Complexes containing E-Cad-GST were isolated using glutathione-agarose (G4510; Sigma-Aldrich, St. Louis, Mo.), washed, and either eluted with 5 mM glutathione or eluted by boiling in SDS-PAGE sample buffer. In sequential purifications involving γ-Catenin-His6 and E-Cad-GST proteins expressed in the same cells, TALON (635503; Clontech Laboratories, Inc., Mountain View, Calif.) resin purifications were performed as described previously (Chytil et al 2004), and the 400 mM imidazole eluents were diluted ten-fold and purified using glutathione-agarose, followed by elution with 5 mM glutathione. […] Immunoprecipitations were performed as described previously (Law et al 2002) using 2 mg of total protein extract per sample and 4 μg of antibody per sample. Immunoprecipitates prepared using antibodies to E-Cadherin (610182; BD Biosciences) or GST (sc-459; Santa Cruz Biotechnology Inc.) were isolated with 35 μl per sample Protein G-Sepharose (10-1242; Invitrogen), washed, and eluted by boiling in SDS-PAGE sample buffer.
FIG. 6. […] A. Crude lysates (left panel) or GST pulldowns (right panel) from 231/E-Cad-GST cells treated for 72 hrs with 100 nM Dexamethasone, 10 nM Largazole, or Dex.+Larg. were analyzed by immunoblot. B. 231/E-Cad-GST cells were infected with an adenovirus encoding His6-tagged γ-Catenin and 231/neo cells were infected with an adenovirus encoding GFP and incubated 24 hours. The cells were then treated as indicated for 72 hrs with or without Dex.+Larg. γ-Catenin- and E-Cadherin containing complexes were isolated by sequential TALON and glutathione-agarose chromatography and analyzed by immunoblot. C. 231/E-Cad-GST cells were treated with 10 nM Largazole, 1 μM SAHA, or 100 nM TSA for 72 hrs and extracts were subjected to glutathione-agarose chromatography and the affinity purified material was analyzed by immunoblot.

[2] = system: 231/E-GFP cell line (MDA-MB-231 cells stably expressing E-Cad-GFP); assay: Fluorescence microscopy of E-Cad-GFP localization in 231/E-Cad-GFP cells; settings: 72 hrs, 100 nM Dexamethasone, 10 nM Largazole, or both (FIG. 3A)
Experimental: Fluorescence and immunofluorescence microscopy were performed essentially as described previously (Corsino et al 2008) employing antibodies to E-Cadherin (610182; BD Bioscience) and γ-Catenin (138500; Invitrogen, Carlsbad, Calif.).
The 231/E-GFP cell line was treated with a series of small molecule signaling agonists and antagonists to identify compounds that modulate E-Cadherin localization within the cell. […] Changes in E-Cadherin localization partially overlapped with changes in γ-Catenin localization. In vitro invasion assays were performed to determine the respective effects of E-Cadherin expression and Dex.+Larg. treatment on the invasiveness of MDA-MB-231 cells.
FIG. 3. Dexamethasone and Largazole cooperate to suppress invasion and to restore E-Cadherin localization to the cell periphery. A. Fluorescence (E-Cad-GFP) or immunofluorescence microscopy (γ-Catenin (γ-Cat.)) of 231/E-Cad-GFP cells treated for 72 hrs with Vehicle (Control), 100 nM Dexamethasone, 10 nM Largazole, or 100 nM Dexamethasone+10 nM Largazole (Dex.+Larg.). […] BT549 cells were treated and analyzed by immunofluorescence microscopy as in FIG. 3A. D. BT549 cells were treated as described in FIG. 3A and analyzed for invasion as outlined in FIG. 3B.

BT549 cells = settings: 72 hrs; 100 nM Dexamethasone, 10 nM Largazole, or both (FIG. 3D)
CDCP1 = CDCP1 immunoblot analysis, MDA-MB-231 cells; settings: 72 hr, Dexamethasone 100 nM, Largazole 10 nM (FIG. 5A, 5C)

| SMILES | stabilization of E-Cadherin/γ-Catenin complexes relative to vehicle ([1]; 231/E-Cad-GST cells, 72 hrs) | E-Cadherin localization to the cell-cell periphery [2] | invasion of BT549 cells in vitro (BT549 cells) | CDCP1 cleavage (cleaved form cCDCP1, p80) (CDCP1) | γ-Catenin binding to E-Cadherin ([1]; 231/E-Cad-GST cells, 72 hrs, 100 nM Dexamethasone or 10 nM Largazole (FIG. 6A)) | levels of γ-Catenin ([1]; 231/E-Cad-GST crude lysates, 72 hrs, 10 nM Largazole (FIG. 6A)) | E-Cadherin association with β-Catenin ([1]; Largazole treatment) |
| --- | --- | --- | --- | --- | --- | --- | --- |
| CC(/C=C/C(=O)NO)=C\[C@@H](C)C(=O)c1ccc(N(C)C)cc1 [TSA, Trichostatin A, reference compound] | stabilized E-Cadherin/γ-Catenin complexes to similar extents relative to vehicle treatment | – | – | – | – | – | – |
| O=C(CCCCCCC(=O)Nc1ccccc1)NO [SAHA, suberoylanilide hydroxamic acid, reference compound] | stabilized E-Cadherin/γ-Catenin complexes to similar extents relative to vehicle treatment | – | – | – | – | – | – |
| CCCCCCCC(=O)SCC/C=C/[C@@H]1CC(=O)NCc2nc(cs2)C2=N[C@@](C)(CS2)C(=O)N[C@@H](C(C)C)C(=O)O1 [Largazole, largazole] | stabilized E-Cadherin/γ-Catenin complexes to similar extents relative to vehicle treatment | modestly increased E-Cadherin localization to the cell-cell periphery | suppressed the invasion of BT549 cells in vitro | did not influence CDCP1 cleavage | preferentially increased γ-Catenin binding to E-Cadherin relative to β-Catenin binding | without changing the levels of γ-Catenin | little effect on E-Cadherin association with β-Catenin |
